Data taken from US20230065953A1, “NOVEL HETEROARYL-TRIAZOLE COMPOUNDS AS PESTICIDES” (Bayer Aktiengesellschaft, priority 2019, published 2023).

Legend:
Type in all cases: in vivo
[1] = system: larvae of the banded cucumber beetle (Diabrotica balteata); assay: Diabrotica balteata spray test; settings: 168 h, 100 g/ha (=32 μg/well), wheat seeds, after 7 days, read-out: efficacy (seedling growth)
Method: Diabrotica Balteata—Spray Test
• Solvent: 78.0 parts by weight of acetone • 1.5 parts by weight of dimethylformamide • Emulsifier: alkylarylpolyglycol ether
Further test concentrations are prepared by dilution with emulsifier containing water.
Soaked wheat seeds (Triticum aestivum) are placed in a multiple well plate filled with agar and some water and are incubated for 1 day to germinate (5 seeds per well). The germinated wheat seeds are sprayed with a test solution containing the desired concentration of the active ingredient. Afterwards each unit is infected with 10-20 larvae of the banded cucumber beetle (Diabrotica balteata).
After 7 days efficacy in % is determined.

[2] = system: fall armyworm larvae (Spodoptera frugiperda); assay: Spodoptera frugiperda spray test (maize leaf sections); settings: 168 h
Method: Spodoptera frugiperda—Spray Test • Solvent: 78.0 parts by weight acetone • 1.5 parts by weight dimethylformamide • Emulsifier: alkylarylpolyglycol ether
(§1) To produce a suitable preparation of active compound, 1 part by weight of active compound is mixed with the stated amount of solvents and is diluted with water, containing an emulsifier concentration of 1000 ppm, to the desired concentration. Further test concentrations are prepared by dilution with emulsifier containing water.
Maize (Zea mays) leaf sections are sprayed with a preparation of the active ingredient of the desired concentration. Once dry, the leaf sections are infested with fall armyworm larvae (Spodoptera frugiperda).
After 7 days mortality in % is determined. 100% means all caterpillars have been killed and 0% means none of the caterpillars have been killed.

[3] = system: larvae of the southern green stink bug (Nezara viridula); assay: Nezara viridula spray test; settings: in Hordeum vulgare, 96 h
Method: Nezara viridula—Spray Test • Solvent: 78.0 parts by weight of acetone • 1.5 parts by weight of dimethylformamide • Emulsifier: alkylarylpolyglycol ether
as §1, with “solvent,” for “solvents”, “and the concentrate” for “and”
Barley plants (Hordeum vulgare) are sprayed with a test solution containing the desired concentration of the active ingredient and are infested with larvae of the southern green stink bug (Nezara viridula).
After 4 days mortality in % is determined. 100% means all the stink bugs have been killed; 0% means none of the stink bugs have been killed.

Structure (SMILES)	pest or weed control at 32 µg/disc, 100 g/ha [1] [%]	mortality at 100 g/ha [2] [%]	mortality at 100 g/ha [3] [%]	mortality at 500 g/ha [3] [%]
Cc1nc([C@H](C)NC(=O)c2cc(Cl)cc(C(F)(F)F)c2)n(-c2ncc(C(=O)N(C)C)s2)n1 [I-22]	100	100		
C[C@H](NC(=O)c1cc(F)cc(C#N)c1)c1ncnn1-c1ncc(C#N)s1 [I-41]	100	100		
C[C@H](NC(=O)c1cc(Br)cc(C2(F)CC2)c1)c1ncnn1-c1ncc(C#N)s1 [I-43]	100	100		
C[C@H](NC(=O)c1cc(C(F)F)cc(C2CC2)c1)c1ncnn1-c1ncc(C#N)s1 [I-44]	100	100		
C[C@H](NC(=O)c1cc(Br)cc(C2CC2(F)F)c1)c1ncnn1-c1ncc(C#N)s1 (stereo partly drawn) [I-45]	100	100		
C[C@H](NC(=O)c1cc(OC(F)(F)F)cc(S(C)(=O)=O)c1)c1nc(C2CC2)nn1-c1ncc(C#N)s1 [I-48]	100	100		
C[C@H](NC(=O)c1cc(F)cc(C(F)F)c1)c1ncnn1-c1ncc(C#N)s1 [I-49]	100	100		
C[C@H](NC(=O)c1cc(F)cc(OC(F)F)c1)c1ncnn1-c1ncc(C#N)s1 [I-53]	100	100		
C[C@H](NC(=O)c1cc(Br)cc(S(=O)(=O)C(F)(F)F)c1)c1ncnn1-c1ncc(C#N)s1 [I-55]	100	100		
C[C@H](NC(=O)c1cc(C2CC2)cc(S(=O)(=O)C(F)(F)F)c1)c1ncnn1-c1ncc(C#N)s1 [I-56]	100	100		
C[C@H](NC(=O)c1cc(Br)cc(OC(F)(F)F)c1)c1ncnn1-c1ncc(C#N)s1 [I-57]	80	100		
C[C@H](NC(=O)c1cc(Br)cc(C#N)c1)c1ncnn1-c1ncc(C#N)s1 [I-58]	100			
C[C@H](NC(=O)c1cc(OC(F)(F)F)cc(S(=O)(=O)C2CC2)c1)c1ncnn1-c1ncc(C#N)s1 [I-61]	100	100		
CCS(=O)(=O)c1cc(OC(F)(F)F)cc(C(=O)N[C@@H](C)c2ncnn2-c2ncc(C#N)s2)c1 [I-62]	100	100		
CC(C)S(=O)(=O)c1cc(OC(F)(F)F)cc(C(=O)N[C@@H](C)c2ncnn2-c2ncc(C#N)s2)c1 [I-63]	100			
Cc1nc([C@H](C)NC(=O)c2cc(Cl)cc(C(F)(F)F)c2)n(-c2ncc(C(=O)NC(C)C)s2)n1 [I-68]	100	100		
CC(NC(=O)c1cc(Br)cc(OCC(F)(F)F)c1)c1ncnn1-c1ncc(C#N)s1 (stereo not drawn) [I-88]	100	100		
Cc1nc([C@H](C)NC(=O)c2cc(Br)cc(OCC(F)(F)F)c2)n(-c2ncc(C#N)s2)n1 [I-92]	100	100		
C[C@H](NC(=O)c1cc(Cl)cc(C#N)c1)c1ncnn1-c1ncc(C#N)s1 [I-101]	100	100		
C[C@H](NC(=O)c1cc(Cl)cc(S(=O)(=O)C(F)(F)F)c1)c1ncnn1-c1ncc(C(=O)N(C)C)s1 [I-116]	100	100		
C[C@H](NC(=O)c1cc(C(F)F)cc(C(F)F)c1)c1ncnn1-c1ncc(C(=O)N(C)C)s1 [I-117]			100	100
CNC(=O)c1cnc(-n2ncnc2[C@H](C)NC(=O)c2cc(Cl)cc(C3CC3)c2)s1 [I-122]	100	100		
C[C@H](NC(=O)c1cc(OC(F)F)cc(S(C)(=O)=O)c1)c1nc(C2CC2)nn1-c1ncc(C#N)s1 [I-132]	100	100		

Structure (SMILES)	pest or weed control at 32 µg/disc, 100 g/ha [1] [%]	mortality at 100 g/ha [2] [%]	mortality at 100 g/ha [3] [%]	mortality at 500 g/ha [3] [%]
C[C@H](NC(=O)c1cc(OC(F)F)cc(S(=O)(=O)C2CC2)c1)c1nc(C2CC2)nn1-c1ncc(C#N)s1 [I-133]	100	100		
C[C@H](NC(=O)c1cc(C#N)cc(OC(F)(F)F)c1)c1ncnn1-c1ncc(C#N)s1 [I-135]	100	100		
C[C@H](NC(=O)c1cc(Cl)nc(OC(F)(F)F)c1)c1ncnn1-c1ncc(C#N)s1 [I-139]	100	100		
CNC(=O)c1cnc(-n2ncnc2[C@H](C)NC(=O)c2cc(Cl)cc(S(=O)(=O)c3ccc(Cl)cc3)c2)s1 [I-140]	100	100		
C[C@H](NC(=O)c1cc(Cl)cc(S(=O)(=O)c2ccc(Cl)cc2)c1)c1ncnn1-c1ncc(C(=O)N(C)C)s1 [I-141]		100		
C[C@H](NC(=O)c1cc(Cl)cc(S(=O)(=O)c2ccc(Cl)cc2)c1)c1ncnn1-c1ncc(C#N)s1 [I-143]	80	100		
C[C@H](NC(=O)c1cc(OC(F)(F)F)cc(OC(F)(F)F)c1)c1ncnn1-c1ncc(C#N)s1 [I-144]	100	100		
C[C@H](NC(=O)c1cc(Br)cc(OC(F)(F)F)c1)c1ncnn1-c1ncc(C(=O)N(C)C2CC2)s1 [I-145]	100	100		
C[C@H](NC(=O)c1cc(Cl)cc(S(=O)(=O)C(F)F)c1)c1ncnn1-c1ncc(C(=O)N(C)C2CC2)s1 [I-146]	100	100		
C[C@H](NC(=O)c1cc(OC(F)(F)F)cc(S(C)(=O)=O)c1)c1ncnn1-c1ncc(C(=O)N(C)C2CC2)s1 [I-147]	100	100		
C[C@H](NC(=O)c1cc(Cl)cc(S(=O)(=O)c2ccc(Cl)cc2)c1)c1ncnn1-c1ncc(C(=O)N(C)C2CC2)s1 [I-149]	100	100		
C[C@H](NC(=O)c1cc(C(F)F)cc(C(F)F)c1)c1ncnn1-c1ncc(C(=O)N(C)C2CC2)s1 [I-150]	100	100		
C[C@H](NC(=O)c1cc(C(F)(F)F)cc(C(F)(F)F)c1)c1ncnn1-c1ncc(C(=O)N(C)C2CC2)s1 [I-151]	100	100		
C[C@H](NC(=O)c1cc(Cl)cc(S(=O)(=O)C(F)(F)F)c1)c1ncnn1-c1ncc(C(=O)N(C)C2CC2)s1 [I-153]	100	100		
C[C@H](NC(=O)c1cc(C(F)(F)F)cc(C(F)(F)F)c1)c1nc(C2CC2)nn1-c1ncc(C(=O)N(C)C)s1 [I-156]	100	100		
C[C@H](NC(=O)c1cc(OC(F)(F)F)cc(C2CC2)c1)c1nc(C2CC2)nn1-c1ncc(C(=O)N(C)C)s1 [I-157, 2-(3-cyclopropyl-5-{(1S)-1-[3-cyclopropyl-5-(trifluoromethoxy)benzamido]ethyl}-1H-1,2,4-triazol-1-yl)-N,N-dimethyl-1,3-thiazole-5-carboxamide]	100	100		
Cc1nc([C@H](C)NC(=O)c2cc(OC(F)(F)F)cc(S(C)(=O)=O)c2)n(-c2ncc(C#N)s2)n1 [I-159]	100	100		
Cc1nc([C@H](C)NC(=O)c2cc(Cl)cc(S(=O)(=O)C(F)(F)F)c2)n(-c2ncc(C#N)s2)n1 [I-160]	100	100		
Cc1nc([C@H](C)NC(=O)c2cc(S(=O)(=O)C(F)(F)F)cc(S(=O)(=O)C(F)(F)F)c2)n(-c2ncc(C#N)s2)n1 [I-162]	100	100		
Cc1nc([C@H](C)NC(=O)c2cc(Cl)cc(S(=O)(=O)C3CC3)c2)n(-c2ncc(C#N)s2)n1 [I-163]	100	100		
Cc1nc([C@H](C)NC(=O)c2cc(OC(F)(F)F)cc(S(=O)(=O)C3CC3)c2)n(-c2ncc(C#N)s2)n1 [I-164]	100	100		
C[C@H](NC(=O)c1cncc(OC(F)(F)F)c1)c1ncnn1-c1ncc(C#N)s1 [I-174]				100
COc1nc(C(C)NC(=O)c2cc(OC(F)(F)F)cc(S(=O)(=O)C3CC3)c2)n(-c2ncc(C#N)s2)n1 (stereo not drawn) [I-200, N-{1-[1-(5-cyano-1,3-thiazol-2-yl)-3-methoxy-1H-1,2,4-triazol-5-yl]ethyl}-3-(cyclopropylsulfonyl)-5-(trifluoromethoxy)benzamide]	100			
